According to patent US20060160810A1, “2-Alkoxyphenyl substituted imidazotriazinones” (priority 2001, published 2006):

Target: T1, human recombinant PDE5 (Homo sapiens, UniProt O76074)
T1 construct: made in house
Assay: Phosphodiesterase [3H] cGMP-SPA enzyme assay (inhibition of PDE5 in vitro)
Format: biochemical
Conditions: human recombinant PDE5 expressed in a bacculovirus system; substance concentration at which the reaction rate is reduced by 50%; read-out: PDE V IC50
Description: To test the inhibiting action, the “Phosphodiesterase [^3H] cGMP-SPA enzyme assay” from Amersham Life Science was used. The test was carried out according to the manufacturer's test protocol. Use was made of human recombinant PDE5 which was expressed in a bacculovirus system. The substance concentration at which the reaction rate is reduced by 50% was measured.

Compound | IC50
CCCc1nc(C)c2c(=O)[nH]c(-c3cc(S(=O)(=O)N4CCNCC4)ccc3OCC)nn12 [Example 1, 2-[2-Ethoxy-5-(1-piperazinylsulphonyl)phenyl]-5-methyl-7-propylimidazo-[5,1-f]-1,2,4-triazin-4(3H)-one] | 4.2 nM
CCCc1nc(C)c2c(=O)[nH]c(-c3cc(S(=O)(=O)N4CC[N+]([O-])(CC)CC4)ccc3OCC)nn12 [Example 2, 2-{2-Ethoxy-5-[(4-ethyl-4-hydroxy-4λ^5-piperazin-1-yl)sulphonyl]phenyl}-5-methyl-7-propylimidazo[5,1-f]-1,2,4-triazin-4(3H)-one] | 19 nM
CCCc1nc(C)c2c(=O)[nH]c(-c3cc(S(=O)(=O)NCCNCC)ccc3OCC)nn12 [Example 3, 4-Ethoxy-N-[2-(ethylamino)ethyl]-3-(5-methyl-4-oxo-7-propyl-3,4-dihydroimidazo[5,1-f]-1,2,4-triazin-2-yl)benzenesulphonamide] | 19 nM
CCCc1nc(C)c2c(=O)[nH]c(-c3cc(S(=O)(=O)NCCN)ccc3OCC)nn12 [Example 4, N-(2-aminoethyl)-4-ethoxy-3-(5-methyl-4-oxo-7-propyl-3,4-dihydroimidazo[5,1-f]-1,2,4-triazin-2-yl)benzenesulphonamide] | 2.4 nM
